Experimental findings from paper PMC11277145, “Wrinkle-Improving Effect of Novel Peptide That Binds to Nicotinic Acetylcholine Receptor” (International Journal of Molecular Sciences, 2024) are described below.

This series deals with human cornea model (MCTT HCE^TM). In words: Eye irritation test, human cornea model (MCTT HCE). Format: cell-based. The conditions noted are these: for Cell survival (%Control): 10 min exposure, 18 h post-culture, WST-1; for Average absorption: mean of N1 and N2; for Absorption (N1): replicate N1, WST-1, 450 nm; for Absorption (N2): replicate N2, WST-1, 450 nm. How it is done: To evaluate the eye irritation potential of the peptide, an in vitro experimental model recognized by the OECD as an alternative animal evaluation method, the human cornea model (MCTT HCE^TM), was used. The experiment was conducted according to the standard experimental method provided by the manufacturer, Biosolution (Seoul, Republic of Korea). First, before the experiment, the color interference of the test material was checked, and to begin the experiment, MCTT HCE^TM was incubated for 22 h at 5% CO2 and 37 °C. Next, 40 μL of the peptide was applied to the top of the MCTT HCE^TM and left to react for 10 min. Afterwards, the peptide was removed using DPBS, and MCTT HCE^TM was transferred to a new medium and cultured for 18 h at 5% CO2 and 37 °C. After the culture was completed, 200 μL/well of WST-1 solution diluted at a ratio of 1:25 was added to a new plate, MCTT HCE^TM was transferred thereon, and 100 μL of WST-1 solution was treated inside.

Where no end group is shown, it is not given here.

As for RRGVRR [Peptide 289], for the setting “0.1ppm”, the “Average absorption, second value” is recorded as 1.469; the “Cell survival (%Control)” value is listed as 105.30%; the Average absorption came out at 1.523; the “Absorption (N1)” value amounted to 1.461. Moreover, for the setting “0.1ppm”, the “Absorption (N2)” value is listed as 1.585. Besides, under “0.1 ppm to 100 ppm, MCTT HCE”, the “eye irritation” value is “non-irritating”. Under “1ppm”, the “Average absorption, second value” is 1.553; the “Cell survival (%Control)” value came out at 111.30%; the Average absorption is given as 1.607; the “Absorption (N1)” value came to 1.558. In addition, under “1ppm”, the “Absorption (N2)” value came to 1.656. In addition, under “10ppm”, the “Average absorption, second value” is given as 1.47; the “Cell survival (%Control)” value is 105.30%; the Average absorption is reported as 1.524; the “Absorption (N1)” value is listed as 1.464. Besides, the “Absorption (N2)” value (10ppm) was found to be 1.583. For the same substance, where the note is “100ppm”, the “Average absorption, second value” was 1.456; the “Cell survival (%Control)” value was 104.30%; the Average absorption is on record as 1.51; the “Absorption (N1)” value is on record as 1.563. For the same substance, under “100ppm”, the “Absorption (N2)” value is 1.456.
